Values of other authors as cited in PMC9516332 (Frontiers in Oncology, 2022).
Read-outs that look alike come from different tables or passages of the source.

What was measured:
Settings in all cases: cited from earlier work
[1] = target: panel of 255 wild-type kinases (Homo sapiens, UniProt P05129)
[2] = target: T1, panel of 255 wild-type kinases (Homo sapiens, UniProt P29322)
T1 sequence (P29322 28-1005): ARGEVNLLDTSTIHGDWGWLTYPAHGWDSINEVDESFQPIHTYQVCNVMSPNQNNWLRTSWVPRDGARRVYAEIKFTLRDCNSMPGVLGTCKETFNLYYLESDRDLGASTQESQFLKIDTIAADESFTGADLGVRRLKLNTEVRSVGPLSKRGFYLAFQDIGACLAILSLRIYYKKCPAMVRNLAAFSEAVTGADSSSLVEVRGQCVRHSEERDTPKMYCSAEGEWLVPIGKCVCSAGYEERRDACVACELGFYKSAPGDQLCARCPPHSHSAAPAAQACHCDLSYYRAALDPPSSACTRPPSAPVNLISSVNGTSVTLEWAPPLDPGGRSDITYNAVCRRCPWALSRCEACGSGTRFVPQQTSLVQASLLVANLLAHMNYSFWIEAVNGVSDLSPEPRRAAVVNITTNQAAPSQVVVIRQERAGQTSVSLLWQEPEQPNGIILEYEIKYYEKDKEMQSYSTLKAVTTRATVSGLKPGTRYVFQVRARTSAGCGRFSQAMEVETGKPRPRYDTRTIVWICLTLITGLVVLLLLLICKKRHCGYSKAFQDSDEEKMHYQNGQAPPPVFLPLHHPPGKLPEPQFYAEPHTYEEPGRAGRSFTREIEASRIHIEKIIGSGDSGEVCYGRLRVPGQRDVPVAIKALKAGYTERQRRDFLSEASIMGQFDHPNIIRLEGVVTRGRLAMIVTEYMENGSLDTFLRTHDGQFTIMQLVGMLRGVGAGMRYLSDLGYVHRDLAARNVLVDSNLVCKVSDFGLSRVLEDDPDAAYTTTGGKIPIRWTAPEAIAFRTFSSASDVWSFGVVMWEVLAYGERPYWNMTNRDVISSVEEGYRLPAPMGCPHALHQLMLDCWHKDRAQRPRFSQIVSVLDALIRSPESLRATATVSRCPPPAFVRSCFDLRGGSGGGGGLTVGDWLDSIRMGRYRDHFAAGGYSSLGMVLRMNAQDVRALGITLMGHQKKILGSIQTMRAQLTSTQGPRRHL

[3] = target: panel of 255 wild-type kinases (Homo sapiens, UniProt P51957)
[4] = target: T2, panel of 255 wild-type kinases (Homo sapiens, UniProt Q16832)
T2 sequence (Q16832 22-855): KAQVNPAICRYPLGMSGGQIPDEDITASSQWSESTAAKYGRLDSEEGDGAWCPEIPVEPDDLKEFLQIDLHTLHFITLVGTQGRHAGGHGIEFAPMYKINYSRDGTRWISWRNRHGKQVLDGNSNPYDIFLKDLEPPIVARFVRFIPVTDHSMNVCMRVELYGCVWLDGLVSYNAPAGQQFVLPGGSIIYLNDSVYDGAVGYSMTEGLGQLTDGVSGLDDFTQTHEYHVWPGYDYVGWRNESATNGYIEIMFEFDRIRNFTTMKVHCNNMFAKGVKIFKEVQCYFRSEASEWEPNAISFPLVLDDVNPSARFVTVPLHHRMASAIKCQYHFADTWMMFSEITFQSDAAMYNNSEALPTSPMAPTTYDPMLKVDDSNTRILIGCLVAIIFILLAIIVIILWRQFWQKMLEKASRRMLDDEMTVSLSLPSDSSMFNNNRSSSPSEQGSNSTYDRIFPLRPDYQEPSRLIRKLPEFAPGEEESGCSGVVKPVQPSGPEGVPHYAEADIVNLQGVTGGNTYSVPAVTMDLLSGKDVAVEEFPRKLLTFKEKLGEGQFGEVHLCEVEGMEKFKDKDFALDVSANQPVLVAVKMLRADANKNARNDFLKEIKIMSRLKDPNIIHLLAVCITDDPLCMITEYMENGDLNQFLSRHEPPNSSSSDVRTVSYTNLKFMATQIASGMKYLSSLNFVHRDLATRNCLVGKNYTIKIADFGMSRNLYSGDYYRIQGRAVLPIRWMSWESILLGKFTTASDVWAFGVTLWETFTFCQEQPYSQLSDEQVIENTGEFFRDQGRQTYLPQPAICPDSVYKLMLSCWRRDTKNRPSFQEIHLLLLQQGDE

[5] = target: T3, panel of 255 wild-type kinases (Homo sapiens, UniProt Q8NE63)
T3 sequence (Q8NE63 1-616): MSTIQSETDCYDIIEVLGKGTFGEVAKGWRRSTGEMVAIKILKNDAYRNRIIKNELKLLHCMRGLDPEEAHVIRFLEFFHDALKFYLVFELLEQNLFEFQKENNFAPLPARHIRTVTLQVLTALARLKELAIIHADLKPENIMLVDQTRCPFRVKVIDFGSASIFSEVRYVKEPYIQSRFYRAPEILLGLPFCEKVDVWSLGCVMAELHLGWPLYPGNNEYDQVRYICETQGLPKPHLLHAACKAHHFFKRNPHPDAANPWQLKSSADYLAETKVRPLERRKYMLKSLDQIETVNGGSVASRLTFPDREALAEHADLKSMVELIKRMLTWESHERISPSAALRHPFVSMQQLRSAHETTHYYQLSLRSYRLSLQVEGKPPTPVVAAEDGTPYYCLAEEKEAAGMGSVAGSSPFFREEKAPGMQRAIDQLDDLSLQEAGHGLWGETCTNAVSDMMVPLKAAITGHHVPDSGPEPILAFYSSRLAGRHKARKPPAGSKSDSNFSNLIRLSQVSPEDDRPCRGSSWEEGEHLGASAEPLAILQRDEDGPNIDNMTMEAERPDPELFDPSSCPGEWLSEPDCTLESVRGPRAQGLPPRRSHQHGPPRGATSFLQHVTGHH

[6] = target: panel of 255 wild-type kinases (Homo sapiens, UniProt Q9P289)
[7] = kinase PKCγ, 1 µmol/L single concentration, ref DOI: 10.1158/1535-7163.MCT-18-0877
[8] = kinase EPHA8, 1 µmol/L single concentration, ref DOI: 10.1158/1535-7163.MCT-18-0877
[9] = NEK4, 1 µmol/L single concentration, ref DOI: 10.1158/1535-7163.MCT-18-0877
[10] = kinase DDR2, 1 µmol/L single concentration, ref DOI: 10.1158/1535-7163.MCT-18-0877
[11] = kinase HIPK4, 1 µmol/L single concentration, ref DOI: 10.1158/1535-7163.MCT-18-0877
[12] = MST4, 1 µmol/L single concentration, ref DOI: 10.1158/1535-7163.MCT-18-0877
[13] = kinase PKCγ, 1 µmol/L single concentration, ref DOI: 10.1371/journal.pone.0092146
[14] = kinase EPHA8, 1 µmol/L single concentration, ref DOI: 10.1371/journal.pone.0092146
[15] = NEK4, 1 µmol/L single concentration, ref DOI: 10.1371/journal.pone.0092146
[16] = kinase DDR2, 1 µmol/L single concentration, ref DOI: 10.1371/journal.pone.0092146
[17] = kinase HIPK4, 1 µmol/L single concentration, ref DOI: 10.1371/journal.pone.0092146
[18] = MST4, 1 µmol/L single concentration, ref DOI: 10.1371/journal.pone.0092146

CC#CC(=O)N1CCC[C@H]1c1nc(-c2ccc(C(=O)Nc3ccccn3)cc2)c2c(N)nccn12 [acalabrutinib]
%-inhibition at 1 µmol/L, PKCγ [1, 7]: -7.43% | %-inhibition at 1 µmol/L, EPHA8 [2, 8]: 6.51% | %-inhibition, NEK4 [3, 9]: -4.76% | %-inhibition at 1 µmol/L, DDR2 [4, 10]: 6% | %-inhibition at 1 µmol/L, HIPK4 [5, 11]: -10% | %-inhibition, MST4 [6, 12]: -6.42%

CCc1cc2c(cc1N1CCC(N3CCOCC3)CC1)C(C)(C)c1[nH]c3cc(C#N)ccc3c1C2=O [alectinib]
%-inhibition at 1 µmol/L, PKCγ [1, 7]: 0.135% | %-inhibition at 1 µmol/L, EPHA8 [2, 8]: 12% | %-inhibition, NEK4 [3, 9]: -1.16% | %-inhibition at 1 µmol/L, DDR2 [4, 10]: 8% | %-inhibition at 1 µmol/L, HIPK4 [5, 11]: 26% | %-inhibition, MST4 [6, 12]: -7%

COc1cc(N2CCC(N3CCN(C)CC3)CC2)ccc1Nc1ncc(Cl)c(Nc2ccccc2P(C)(C)=O)n1 [brigatinib]
%-inhibition at 1 µmol/L, PKCγ [1]: 11% | %-inhibition at 1 µmol/L, EPHA8 [2]: 6.55% | %-inhibition, NEK4 [3]: 25% | %-inhibition at 1 µmol/L, DDR2 [4]: 60% | %-inhibition at 1 µmol/L, HIPK4 [5]: 81% | %-inhibition, MST4 [6]: -1.25%

Cc1cc(Nc2ncc(Cl)c(Nc3ccccc3S(=O)(=O)C(C)C)n2)c(OC(C)C)cc1C1CCNCC1 [ceritinib]
%-inhibition at 1 µmol/L, PKCγ [1, 7]: -1.46% | %-inhibition at 1 µmol/L, EPHA8 [2, 8]: 6% | %-inhibition, NEK4 [3, 9]: -3.48% | %-inhibition at 1 µmol/L, DDR2 [4, 10]: 12% | %-inhibition at 1 µmol/L, HIPK4 [5, 11]: 36% | %-inhibition, MST4 [6, 12]: 4%

O=C(c1ccc(F)c(F)c1Nc1ccc(I)cc1F)N1CC(O)([C@@H]2CCCCN2)C1 [cobimetinib]
%-inhibition at 1 µmol/L, PKCγ [1, 7]: -1.52% | %-inhibition at 1 µmol/L, EPHA8 [2, 8]: -5.33% | %-inhibition, NEK4 [3, 9]: 5% | %-inhibition at 1 µmol/L, DDR2 [4, 10]: 0.567% | %-inhibition at 1 µmol/L, HIPK4 [5, 11]: 1.8% | %-inhibition, MST4 [6, 12]: -0.477%

C[C@@H](Oc1cc(-c2cnn(C3CCNCC3)c2)cnc1N)c1c(Cl)ccc(F)c1Cl [crizotinib]
%-inhibition at 1 µmol/L, PKCγ [1, 13]: -0.662% | %-inhibition at 1 µmol/L, EPHA8 [2, 14]: 82% | %-inhibition, NEK4 [3, 15]: 4.57% | %-inhibition at 1 µmol/L, DDR2 [4, 16]: 88% | %-inhibition at 1 µmol/L, HIPK4 [5, 17]: 31% | %-inhibition, MST4 [6, 18]: 0.54%

CC(C)(C)c1nc(-c2cccc(NS(=O)(=O)c3c(F)cccc3F)c2F)c(-c2ccnc(N)n2)s1 [dabrafenib]
%-inhibition at 1 µmol/L, PKCγ [1, 13]: -0.381% | %-inhibition at 1 µmol/L, EPHA8 [2, 14]: 35% | %-inhibition, NEK4 [3, 15]: 4% | %-inhibition at 1 µmol/L, DDR2 [4, 16]: 100% | %-inhibition at 1 µmol/L, HIPK4 [5, 17]: 92% | %-inhibition, MST4 [6, 18]: -7%

C=CC(=O)N1CCC[C@@H](n2nc(-c3ccc(Oc4ccccc4)cc3)c3c(N)ncnc32)C1 [ibrutinib]
%-inhibition at 1 µmol/L, PKCγ [1, 7]: 0.797% | %-inhibition at 1 µmol/L, EPHA8 [2, 8]: 55% | %-inhibition, NEK4 [3, 9]: 4.65% | %-inhibition at 1 µmol/L, DDR2 [4, 10]: 17% | %-inhibition at 1 µmol/L, HIPK4 [5, 11]: 2.6% | %-inhibition, MST4 [6, 12]: 1.46%

CO[C@@H]1[C@H](N(C)C(=O)c2ccccc2)C[C@H]2O[C@]1(C)n1c3ccccc3c3c4c(c5c6ccccc6n2c5c31)C(=O)NC4 [midostaurin]
%-inhibition at 1 µmol/L, PKCγ [1, 7]: 91% | %-inhibition at 1 µmol/L, EPHA8 [2, 8]: 6.51% | %-inhibition, NEK4 [3, 9]: 26% | %-inhibition at 1 µmol/L, DDR2 [4, 10]: 97% | %-inhibition at 1 µmol/L, HIPK4 [5, 11]: 63% | %-inhibition, MST4 [6, 12]: 52%

C=CC(=O)Nc1cc(Nc2nccc(-c3cn(C)c4ccccc34)n2)c(OC)cc1N(C)CCN(C)C [osimertinib]
%-inhibition at 1 µmol/L, PKCγ [1, 7]: 14% | %-inhibition at 1 µmol/L, EPHA8 [2, 8]: -8% | %-inhibition, NEK4 [3, 9]: 6% | %-inhibition at 1 µmol/L, DDR2 [4, 10]: 25% | %-inhibition at 1 µmol/L, HIPK4 [5, 11]: 92% | %-inhibition, MST4 [6, 12]: 1.61%

CC(=O)Nc1cccc(-n2c(=O)n(C3CC3)c(=O)c3c(Nc4ccc(I)cc4F)n(C)c(=O)c(C)c32)c1 [trametinib]
%-inhibition at 1 µmol/L, PKCγ [1, 13]: 0.381% | %-inhibition at 1 µmol/L, EPHA8 [2, 14]: -8% | %-inhibition, NEK4 [3, 15]: 2% | %-inhibition at 1 µmol/L, DDR2 [4, 16]: 0.612% | %-inhibition at 1 µmol/L, HIPK4 [5, 17]: 2.78% | %-inhibition, MST4 [6, 18]: -2.23%

CCCS(=O)(=O)Nc1ccc(F)c(C(=O)c2c[nH]c3ncc(-c4ccc(Cl)cc4)cc23)c1F [vemurafenib]
%-inhibition at 1 µmol/L, PKCγ [1, 13]: -4.39% | %-inhibition at 1 µmol/L, EPHA8 [2, 14]: 7% | %-inhibition, NEK4 [3, 15]: -0.416% | %-inhibition at 1 µmol/L, DDR2 [4, 16]: 69% | %-inhibition at 1 µmol/L, HIPK4 [5, 17]: -0.437% | %-inhibition, MST4 [6, 18]: -4.62%
